Results published in patent US10835624B2, “Compounds for imaging Tau protein aggregates” (AC IMMUNE S.A., priority 2016, dated 2020).
Marks after values point to notes of the source that are not given here.

Columns and labels:
MAO A = target: T1, MAO A (Mus musculus, UniProt Q64133); assay: MAO A 18F-FEH competition assay in mouse brain homogenate; type: binding; parameters: Low affinity to MAO A (IC50 in mouse brain homogenate): key to the marks not given beside the values; conditions: for IC50: 18F-FEH competition, read-out: IC50 MAO A in mouse brain homogenate
T1 construct: from tissue; host or cells: whole mouse brain homogenate
T1 sequence (Q64133 1-526): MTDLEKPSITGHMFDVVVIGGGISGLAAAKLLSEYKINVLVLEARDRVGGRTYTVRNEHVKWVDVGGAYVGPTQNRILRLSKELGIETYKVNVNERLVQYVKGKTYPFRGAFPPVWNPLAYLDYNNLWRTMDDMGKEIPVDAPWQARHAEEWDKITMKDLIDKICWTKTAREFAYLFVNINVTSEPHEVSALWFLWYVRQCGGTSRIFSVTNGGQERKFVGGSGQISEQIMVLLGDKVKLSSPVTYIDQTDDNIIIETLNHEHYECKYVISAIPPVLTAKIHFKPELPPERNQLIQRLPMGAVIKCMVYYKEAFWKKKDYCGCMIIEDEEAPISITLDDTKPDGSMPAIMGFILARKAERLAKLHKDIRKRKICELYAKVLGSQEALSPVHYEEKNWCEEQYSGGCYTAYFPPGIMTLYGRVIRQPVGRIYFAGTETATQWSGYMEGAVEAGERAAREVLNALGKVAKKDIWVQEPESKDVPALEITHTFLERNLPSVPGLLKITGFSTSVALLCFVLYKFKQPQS

Tau = Tau (Homo sapiens, UniProt P10636); assay: Tau competition binding in human AD brain homogenate with 18F-labeled Tau binder; parameters: High affinity to Tau (IC50 in AD brain homogenate): key: −: poor; ∘: moderate; +: good; ++: very good; +++: excellent; conditions: determined with non-radioactive F-1, F-2, F-3a; for IC50: human AD brain homogenate, read-out: IC50 for tau binding in AD brain homogenate
Procedure: (§1) 20 μg of human Alzheimer disease brain homogenate was incubated with a dilution series of each test compound (1000 to 0.06 nM) in the presence of 800 Bq of ^18F-labeled Tau binder. The samples were shaken at 110 rpm for 45 min at 37° C. Samples were then filtered through GF/B 96 well filter plates and washed twice with 300 μL assay buffer (PBS containing 0.1% BSA and 2% DMSO). Thereafter, filter plates were sealed and a Fuji Film Imaging Plate (BAS-SR2025) was placed on top. The imaging plate was analyzed after overnight exposition using a Fuji Film BAS-5000. Non-specific signal was determined with samples containing ^18F-labeled Tau-reference binder in the presence of assay buffer without brain substrate and competitor. […] The unblocked ^18F-labeled Tau-binder signal was defined as total binding. IC50 values were calculated by Prism V6 (GraphPad) setting total binding to 100%.

amyloid-beta = amyloid-beta (Homo sapiens, UniProt P05067); assay: Binding affinity to amyloid-beta in AD brain homogenate; conditions: non-radioactive derivatives; for IC50: human AD brain homogenate
Procedure: as §1, with “beta-amyloid” for “Tau”, “beta-amyloid” for “Tau-reference”, “beta-amyloid binder” for “Tau-binder”

[1] = PK studies in healthy mice (PET); type: in vivo, NMRI mice; parameters: Good brain uptake / Fast washout from healthy brain: key: −: poor; ∘: moderate; +: good; ++: very good; +++: excellent; conditions: for Low or minor de-fluorination / Fast washout from healthy brain / Good brain uptake / Low retention in healthy brain: grade; for Low or minor de-fluorination: bone uptake in healthy mice at 60 min; for Fast washout from healthy brain: healthy mice; for Good brain uptake: healthy mice after iv injection; for De-fluorination in mice (in words): mouse, in vivo; for Low retention in healthy brain: healthy mice 60 min after iv injection; for Good brain uptake: key: −: poor; ∘: moderate; +: good; ++: very good; +++: excellent; for Low or minor de-fluorination: key: −: poor; ∘: moderate; +: good; ++: very good; +++: excellent; for Low retention in healthy brain: key: −: poor; ∘: moderate; +: good; ++: very good; +++: excellent
Procedure: NMRI mice (weight range 25-35 g) were injected intravenously with the ^18F-labeled compounds. Up to 150 μL of 1×PBS solution with 10%-15% EtOH or dilution medium ([…]) containing the ^18F-labeled compound (2-10 MBq) were injected. Anesthesia with isoflurane was induced before injection of the tracer and maintained during the image acquisition period. PET scans were performed using a SIEMENS INVEON small animal PET/CT scanner (Siemens, Knoxville, Tenn.). PET acquisition was started immediately before the radioactive dose was injected into the animal through the tail vein. Images were generated as dynamic scans for 60 minutes.
The peak uptake in the brain was set to 100% and washout curves were generated to evaluate the clearance of the activity from the normal brain (FIG. 2).

Chain of amyloid-beta (P05067 672-711 limits assumed): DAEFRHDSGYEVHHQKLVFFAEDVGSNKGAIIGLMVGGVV
Chain of Tau (P10636 623-708 limits assumed): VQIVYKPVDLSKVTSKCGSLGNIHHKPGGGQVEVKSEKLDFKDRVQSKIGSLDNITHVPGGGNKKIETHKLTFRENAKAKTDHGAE

Compound | IC50 (MAO A; non-radioactive derivatives) [nM] | IC50 (Tau) [nM] | IC50 (amyloid-beta) [nM] | Low or minor de-fluorination [1] | Fast washout from healthy brain [1] | Good brain uptake [1] | De-fluorination in mice (in words) [1] | Low affinity to MAO A (IC50 in mouse brain homogenate) (MAO A; grade, non-radioactive derivatives) | Fold higher MAO A IC50 than compound 18F-1 (MAO A; whole mouse brain homogenate) [fold] | Fold higher MAO A IC50 than compound 18F-2 (MAO A; whole mouse brain homogenate) [fold] | High affinity to Tau (IC50 in AD brain homogenate) (Tau; grade) | Low affinity to amyloid-beta (IC50 in AD brain homogenate) (amyloid-beta; grade) | Low retention in healthy brain [1] | Fold faster washout from healthy brain than 18F-1 ([1]; mice) [fold] | Fold lower long-term retention in healthy brain than 18F-1 ([1]; mice) [fold] | Fold lower long-term retention in healthy brain than 18F-2 ([1]; mice) [fold]
[18F]c1ccc(-c2ccc3c(n2)[nH]c2ccncc23)cn1 [^18F-2] | 475 | < 2 | > 1000 | − | ++ | ++ | De-fluorination in mice was found |  |  |  |  |  |  |  |  | 
[18F]c1cc(-c2ccc3c(n2)[nH]c2ccncc23)ccn1 [^18F-3a] | 1400 | < 2 | > 1000 | +++ | ++ | ++ | No de-fluorination | +++ | 64 | 3 | +++ | +++^a) | ++ | 1.6 | 2.7 | 2
[18F]c1ccc(-c2ccc3c(c2)[nH]c2ccncc23)cn1 [^18F-1] | 22 | < 2 | > 1000 |  |  | ++ |  |  |  |  |  |  | − |  |  | 
